Patent publication US20080064718A1, “INHIBITORS OF PROTEIN TYROSINE KINASE ACTIVITY” (priority 2006, published 2008)
Read-outs that look alike come from different tables or passages of the source.

How the values were obtained:
[1] = target: T1, VEGF receptor KDR (Homo sapiens, UniProt P35968); test: In vitro receptor tyrosine kinase assay, VEGF receptor KDR (DELFIA); assay type: biochemical; conditions: GST-VEGFR2 806-1356, ATP 0.6 uM
T1 construct: made in house; host or cells: Sf9 cells (Spodoptera frugiperda), recombinant baculovirus
T1 sequence (P35968 806-1356): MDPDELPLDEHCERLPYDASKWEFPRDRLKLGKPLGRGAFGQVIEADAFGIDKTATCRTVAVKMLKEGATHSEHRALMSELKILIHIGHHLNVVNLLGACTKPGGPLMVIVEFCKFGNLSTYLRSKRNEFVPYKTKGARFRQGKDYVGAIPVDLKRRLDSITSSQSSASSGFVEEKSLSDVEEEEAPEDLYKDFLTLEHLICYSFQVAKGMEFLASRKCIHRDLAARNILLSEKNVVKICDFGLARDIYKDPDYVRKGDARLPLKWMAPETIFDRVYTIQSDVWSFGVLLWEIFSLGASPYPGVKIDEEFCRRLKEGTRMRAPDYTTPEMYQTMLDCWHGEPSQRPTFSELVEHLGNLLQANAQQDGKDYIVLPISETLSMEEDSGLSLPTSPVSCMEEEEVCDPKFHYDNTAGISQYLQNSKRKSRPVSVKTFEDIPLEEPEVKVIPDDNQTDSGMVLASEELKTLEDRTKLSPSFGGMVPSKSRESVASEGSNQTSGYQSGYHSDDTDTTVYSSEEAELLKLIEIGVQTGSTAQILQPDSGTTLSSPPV
From the text: In the case of VEGF receptor KDR a 1.6-kb cDNA corresponding to the catalytic domain of VEGFR2 or KDR (Genbank accession number AF035121 amino acid 806 to 1356) is cloned into the Pst I site of the pDEST20 Gateway vector (Invitrogen) for the production of a GST-tagged version of that enzyme.
The GST-VEGFR2806-1356 protein is expressed in Sf9 cells (Spodoptera frugiperda) upon infection with recombinant baculovirus construct.
The supernatant is loaded onto a GST-agarose column (Sigma) equilibrated with PBS pH 7.3. Following a four column volume (CV) wash with PBS pH 7.3+1% Triton X-100 and 4 CV wash with buffer B (50 mM Tris pH 8.0, 20% glycerol and 100 mM NaCl), bound proteins are step eluted with 5 CV of buffer B supplemented with 5 mM DTT and 15 mM glutathion. […] Final GST-VEGFR2806-1356 protein preparations concentrations are about 0.7 mg/ml with purity approximating 70%.

[2] = target: T2, c-Met (Homo sapiens, UniProt P08581); test: c-Met phosphorylation direct ELISA in MKN45 cells; assay type: cell-based; conditions: 3 h treatment
T2 construct: endogenous in cells; host or cells: MKN45 gastric carcinoma cells
T2 sequence (P08581 25-1390): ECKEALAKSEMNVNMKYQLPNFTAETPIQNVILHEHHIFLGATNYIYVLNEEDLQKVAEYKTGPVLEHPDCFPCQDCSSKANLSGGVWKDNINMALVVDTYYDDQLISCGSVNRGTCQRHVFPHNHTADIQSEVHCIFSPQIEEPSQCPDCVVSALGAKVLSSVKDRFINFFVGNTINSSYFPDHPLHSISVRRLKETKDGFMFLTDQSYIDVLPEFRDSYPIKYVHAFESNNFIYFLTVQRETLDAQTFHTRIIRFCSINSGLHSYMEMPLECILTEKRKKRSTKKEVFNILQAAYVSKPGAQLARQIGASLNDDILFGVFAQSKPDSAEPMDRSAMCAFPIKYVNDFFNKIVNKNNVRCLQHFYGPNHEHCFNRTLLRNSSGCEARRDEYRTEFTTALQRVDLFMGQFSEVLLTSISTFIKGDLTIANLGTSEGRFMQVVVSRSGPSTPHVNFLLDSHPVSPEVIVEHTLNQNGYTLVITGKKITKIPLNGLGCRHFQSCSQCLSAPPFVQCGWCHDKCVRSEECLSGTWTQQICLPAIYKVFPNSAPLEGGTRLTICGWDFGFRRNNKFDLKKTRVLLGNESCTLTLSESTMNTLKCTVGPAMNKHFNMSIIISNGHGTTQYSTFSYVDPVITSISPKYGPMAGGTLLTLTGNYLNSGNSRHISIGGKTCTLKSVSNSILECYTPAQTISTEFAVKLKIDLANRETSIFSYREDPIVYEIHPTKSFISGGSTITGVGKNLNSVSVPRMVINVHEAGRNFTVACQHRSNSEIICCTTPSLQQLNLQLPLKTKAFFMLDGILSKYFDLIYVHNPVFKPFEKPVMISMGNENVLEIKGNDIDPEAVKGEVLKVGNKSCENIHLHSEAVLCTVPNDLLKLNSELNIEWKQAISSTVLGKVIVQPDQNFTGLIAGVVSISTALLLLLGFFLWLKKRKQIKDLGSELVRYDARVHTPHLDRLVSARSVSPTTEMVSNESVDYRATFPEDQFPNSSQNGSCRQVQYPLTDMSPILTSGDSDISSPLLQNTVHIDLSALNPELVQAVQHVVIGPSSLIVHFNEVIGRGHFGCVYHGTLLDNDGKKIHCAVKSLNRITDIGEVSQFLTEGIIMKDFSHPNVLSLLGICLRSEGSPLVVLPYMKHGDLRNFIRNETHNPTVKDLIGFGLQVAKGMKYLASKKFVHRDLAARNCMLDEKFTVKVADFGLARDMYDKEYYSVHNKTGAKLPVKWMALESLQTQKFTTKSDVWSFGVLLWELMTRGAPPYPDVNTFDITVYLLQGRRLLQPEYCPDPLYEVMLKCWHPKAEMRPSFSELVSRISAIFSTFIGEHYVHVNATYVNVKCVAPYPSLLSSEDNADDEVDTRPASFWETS
Protocol: Alternatively, the following assay is used to determine inhibition of c-Met phosphorylation.
The c-Met receptor is expressed in numerous cancer cell lines derived from tumors of epithelial origin. In MKN45 gastric carcinoma cells the c-Met gene is amplified, resulting in several-fold overexpression of the receptor and its constitutive activation.
Cell treatments: MKN45 cells are seeded into wells of 96-well plates at a density of 3×10^4 cells/well in RPMI medium supplemented with 10% FBS. […] Inhibitors are added to the medium in triplicate wells at the indicated doses.
After an overnight protein binding incubation at 4° C., lysates are aspirated and wells are blocked for 1 h at 37° C. in TBST supplemented with 5% BSA. Plates are incubated with the primary antibodies anti-phospho-Tyrosine (Millipore, 4G10) diluted 1/15000 in TBST supplemented with 5% BSA for 1 h at room temperature. Plates are washed 3 times on a plate washer (SkanWasher, Molecular Devises), and incubated with the reporter antibody […] (Sigma) diluted 1/15000 in TBST supplemented with 5% BSA, for 1 h at room temperature. Plates are washed 3 times with TBST using on a plate washer and subsequently incubated with chemiluminescent substrate solution (ECL, Roche). Luminescence signal is captured on a Polar Star Optima apparatus (BMG LabTech).
Average values of the triplicate samples are used to prepare IC50 curves using a 4-parameter fit model. These curves are calculated using, for example, GraFit 5.0 software. For assay standardization purpose, an internal control is included on each experimental test plate.

[3] = target: recombinant human c-Met/HGF receptor (Homo sapiens, UniProt P08581); test: In vitro receptor tyrosine kinase assay, c-Met/HGF receptor (DELFIA)
Sequence of recombinant human c-Met/HGF receptor (P08581 1078-1337): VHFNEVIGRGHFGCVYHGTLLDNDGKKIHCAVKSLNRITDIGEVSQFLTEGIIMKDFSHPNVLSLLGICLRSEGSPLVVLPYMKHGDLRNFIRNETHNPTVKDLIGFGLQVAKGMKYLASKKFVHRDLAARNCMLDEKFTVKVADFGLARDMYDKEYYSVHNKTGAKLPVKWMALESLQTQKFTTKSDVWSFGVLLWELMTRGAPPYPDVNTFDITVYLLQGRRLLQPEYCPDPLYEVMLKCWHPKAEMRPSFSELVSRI

[4] = system: DU145; test: DU145 scattering; assay type: cell-based; conditions: DU145 cells, read-out: CMET DU145 SCATT HEAL- IC50 UM
[5] = system: A549; test: A549 inhibition of wound healing; assay type: cell-based; conditions: read-out: A549 INHIB WND ING IC50 UM

Row | SMILES | IC50 ([1]; read-out: VEGFR IC50) | IC50 [2] | IC50 [3] | IC50 ([4]; Homo sapiens, DU-145) | IC50 ([5]; Homo sapiens, A549 cells) | IC50 ([5]; Homo sapiens, A549, A549 cells) | IC50 ([5]; A549 cells) | IC50 ([1]; read-out: VEGFR (IC50)) | IC50 [4]
1 | CN(C)CC(=O)N1CC=C(c2cc3nccc(Oc4ccc(NC(=O)N5CCN(c6ccccc6)C5=O)cc4F)c3s2)CC1 | < 250 nM | < 250 nM | < 250 nM | < 250 nM | < 250 nM |  |  |  | 
2 | CS(=O)(=O)c1ccc(-c2cc3nccc(Oc4ccc(NC(=O)N5CCN(c6ccccc6)C5=O)cc4F)c3s2)cc1 | 250 to 500 nM | < 250 nM | 250 to 500 nM |  |  |  |  |  | 
3 | O=C(Nc1ccc(Oc2ccnc3cc(-c4cccc[n+]4[O-])sc23)c(F)c1)N1CCN(c2ccc(F)cc2)C1=O | < 250 nM | < 250 nM | < 250 nM | < 250 nM | < 250 nM |  |  |  | 
4 | CCn1cnc(-c2cc3nccc(Oc4ccc(N(C)C(=O)N5CCN(c6ccccc6)C5=O)cc4F)c3s2)c1 | < 250 nM | 500 to 1000 nM | 500 to 1000 nM | > 1000 nM | > 1000 nM |  |  |  | 
5 | CS(=O)(=O)CCNCc1ccc(-c2cc3nccc(Oc4ccc(NC(=O)N5CCN(c6ccccc6)C5=O)cc4F)c3s2)cc1 | < 250 nM | < 250 nM | < 250 nM | 250 to 500 nM | > 1000 nM |  |  |  | 
6 | CN(C)CCOC(=O)N1CC=C(c2cc3nccc(Oc4ccc(NC(=O)N5CCN(c6ccccc6)C5=O)cc4F)c3s2)CC1 | < 250 nM | < 250 nM | < 250 nM | 250 to 500 nM | 250 to 500 nM |  |  |  | 
7 | COCCNC(=O)c1ccc(-c2cc3nccc(Oc4ccc(NC(=O)c5cnn(-c6ccccc6)c5C(F)(F)F)cc4F)c3s2)nc1 | > 1000 nM |  |  | > 1000 nM |  | > 1000 nM |  |  | 
8 | COCCN(C)C(=O)c1ccc(-c2cc3nccc(Oc4ccc(NC(=O)c5cnn(-c6ccccc6)c5C(F)(F)F)cc4F)c3s2)nc1 | > 1000 nM |  | < 250 nM | > 1000 nM | 250 to 500 nM |  |  |  | 
9 | COCCNCc1cccc(-c2cc3nccc(Oc4ccc(NC(=O)N5CCN(c6ccccc6)C5=O)cc4F)c3s2)c1 | < 250 nM | < 250 nM | < 250 nM | < 250 nM | 250 to 500 nM |  |  |  | 
10 | Cn1cnc(-c2cc3nccc(Oc4ccc(NC(=O)c5cnn(-c6ccccc6)c5)cc4F)c3s2)c1 [drawing 192] | > 1000 nM |  |  | > 1000 nM |  |  | 250 to 500 nM |  | 
11 | CS(=O)(=O)CCNCc1ccc(-c2cc3nccc(Oc4ccc(NC(=O)c5cnn(-c6ccccc6)c5C(F)(F)F)cc4F)c3s2)cc1 | > 1000 nM |  |  | > 1000 nM |  | > 1000 nM |  |  | 
12 | Cn1ccnc1-c1cc2nccc(Oc3ccc(NC(=O)c4cnn(-c5ccccc5)c4C(F)(F)F)cc3F)c2s1 | > 1000 nM |  |  | > 1000 nM |  | > 1000 nM |  |  | 
13 | O=C(Nc1ccc(Oc2ccnc3cc(-c4ccc(CNC5CC5)cc4)sc23)c(F)c1)N1CCN(c2ccccc2)C1=O | < 250 nM | < 250 nM | < 250 nM | < 250 nM | 250 to 500 nM |  |  |  | 
14 | Cn1ccnc1-c1cc2nccc(Oc3ccc(NC(=O)c4ncc(-c5ccccc5)s4)cc3F)c2s1 | > 1000 nM |  | > 1000 nM |  |  |  |  |  | 
15 | COCCN(C)Cc1ccc(-c2cc3nccc(Oc4ccc(NC(=O)NNc5ccccc5)cc4F)c3s2)cc1 | > 1000 nM | < 250 nM | 250 to 500 nM | > 1000 nM | 250 to 500 nM |  |  |  | 
16 | CN(C)C(=O)c1ccc(-c2cc3nccc(Oc4ccc(NC(=O)N5CCN(c6ccccc6)C5=O)cc4F)c3s2)cc1 | < 250 nM | < 250 nM | < 250 nM | 250 to 500 nM | < 250 nM |  |  |  | 
17 | O=C(Nc1ccc(Oc2ccnc3cc(-c4ccc(CNCC(F)(F)F)cc4)sc23)c(F)c1)N1CCN(c2ccccc2)C1=O | 250 to 500 nM | 500 to 1000 nM |  | > 1000 nM | > 1000 nM |  |  |  | 
18 | Cn1cnc(-c2cc3nccc(Oc4ccc(NC(CC(=O)Nc5ccccc5)C(F)(F)F)cc4F)c3s2)c1 (stereo not drawn) [Compound 8, 4,4,4-Trifluoro-3-(3-fluoro-4-(2-(1-methyl-1H-imidazol-4-yl)thieno[3,2-b]pyridin-7-yloxy)phenylamino)-N-phenylbutanamide] |  |  |  |  |  |  |  | < 250 nM | 
19 | Cc1c(C(=O)Nc2ccc(Oc3ccnc4cc(-c5cn(C)cn5)sc34)c(F)c2)cnn1-c1ccccc1 | > 1000 nM |  |  | > 1000 nM |  | 250 to 500 nM |  |  | 
20 | Cn1cnc(-c2cc3nccc(Oc4ccc(NC(=O)c5cnn(-c6ccccc6)c5)cc4F)c3s2)c1 [drawing 202] | 500 to 1000 nM |  |  |  |  |  | > 1000 nM |  | > 1000 nM
21 | CCOC(=O)c1ccc(-c2cc3nccc(Oc4ccc(NC(=O)c5cnn(-c6ccccc6)c5C(F)(F)F)cc4F)c3s2)cc1 | > 1000 nM |  | > 1000 nM | > 1000 nM | > 1000 nM |  |  |  | 
22 | CN(C)C(=O)c1ccc(-c2cc3nccc(Oc4ccc(NC(=O)c5cnn(-c6ccccc6)c5C(F)(F)F)cc4F)c3s2)cc1 | > 1000 nM |  |  | 250 to 500 nM |  | < 250 nM |  |  | 
23 | Cn1cnc(-c2cc3nccc(Oc4ccc(NC(=O)CC(Nc5ccccc5)C(F)(F)F)cc4F)c3s2)c1 (stereo not drawn) [Compound 12, 4,4,4-Trifluoro-N-(3-fluoro-4-(2-(1-methyl-1H-imidazol-4-yl)thieno[3,2-b]pyridin-7-yloxy)phenyl)-3-(phenylamino)butanamide] |  |  |  |  |  |  |  | < 250 nM | 
24 | Cn1cnc(-c2cc3nccc(Oc4ccc(NC(=O)c5cnn(C)c5C(F)(F)F)cc4F)c3s2)c1 | 500 to 1000 nM |  | < 250 nM | > 1000 nM | > 1000 nM |  |  |  | 
25 | CN(C)C(=O)c1ccc(-c2cc3nccc(Oc4ccc(NC(=O)c5cnn(-c6ccc(F)cc6)c5C(F)(F)F)cc4F)c3s2)cc1 | > 1000 nM |  | < 250 nM | > 1000 nM | > 1000 nM |  |  |  | 
26 | Cn1ccnc1-c1cc2nccc(Oc3ccc(NC(=O)c4ccc(-c5ccccc5)cc4F)cc3F)c2s1 | > 1000 nM |  | < 250 nM |  |  |  |  |  | 
27 | CN(C)C(=O)c1ccc(-c2cc3nccc(Oc4ccc(NC(=O)c5cnn(-c6ccccc6)c5C(F)(F)F)cc4F)c3s2)nc1 | > 1000 nM |  |  | 250 to 500 nM |  | 250 to 500 nM |  |  | 
28 | CS(=O)(=O)c1ccc(-c2cc3nccc(Oc4ccc(NC(=O)c5cnn(-c6ccccc6)c5C(F)(F)F)cc4F)c3s2)nc1 | > 1000 nM |  | < 250 nM | 250 to 500 nM | < 250 nM |  |  |  | 
